According to US6610681B1, “Neurotherapeutic clavulanate composition and method” (Revaax Pharmaceuticals, LLC, priority 1999, dated 2003):
“Also recorded” adds a separate entry of the source.

Experiments:
[1] = system: neurogenic NAALADase; test: animal tests of neuroactivity, effective dose; format: in vivo, hamsters and other test species
[2] = system: male golden hamsters; test: resident/intruder paradigm of offensive aggression; format: in vivo, hamster
Description: Agonistic behavior can be classified as either offensive or defensive aggression (Blanchard and Blanchard, 1977; Adams, […]; Albert and Walsh, 1984). Offensive aggression is characterized by an aggressor initiating an attack on an opponent; while, defensive aggression lacks active approach. Both types of aggression have their own unique neurobehavioral systems. The stimuli that elicit offensive and defense attack are different, as are the sequences of behaviors that accompany each agonistic response. […] Offensive aggression is easily studied using male golden hamsters tested in a resident/intruder paradigm, an established model of offensive aggression (Ferris and Potegal 1988) in the context of defending the home burrow. Placing an unfamiliar male hamster into the home cage of another male hamster elicits a well-defined sequence of agonistic behaviors from the resident that includes offensive aggression.
Hamsters are nocturnal and as such all behavioral tests were performed during the first four hrs of the dark phase under dim red illumination. The resident was scored for offensive aggression, e.g., latency to bite the intruder, the total number of bites, total contact time with the intruder and flank marking over a 10 min test period (Ferris and Potegal, 1988). Flank marking is a form of olfactory communication in which a hamsters arches its back and rubs pheromone producing flank glands against objects in the environment (Johnston, 1986).
Five male golden hamsters (130-140 g) were given IP injections of CLAV (200 μg/kg) and saline vehicle in a volume of ca. 0.2 ml. […] Vehicle and CLAV treatments were counter balanced and randomized so all five animals received each treatment separated by at least 48 hrs. Animals were tested 90 min after treatment over a 10 min observation period. Latencies and contact time were analyzed with a two-way ANOVA. Non-parametric data, i.e., number of bites and flank marks were analyzed by Wilcoxon matched-pairs signed-ranks test.
The animals tested in this study were those used in Section IX. After the seed finding assay, beta-NAAG (n=6) and saline vehicle (n=6) treated animals remained in their home cage and were presented with a smaller, male intruder. The resident was scored for latency to bite, bites, contact time and flank marking over a 10 min observation period. Latency to bite and contact time between treatments were compared with Student t-tests. Non-parametric measures of bites and flank marks for beta-NAAG vs vehicle were compared with Mann-Whitney.

[3] = system: male Syrian golden hamsters; test: golden hamster seed finding model of anxiety; format: in vivo, Mesocricetus auratus
Description: Clavulanic acid (CLAV) is structurally similar to the beta-lactam antibiotics. A most robust and simple bioassay for screening beta-lactams for CNS activity is the golden hamster seed finding model of anxiety. Briefly, hamsters are deprived of food overnight. The following day they are exposed to the additional stress of being taken from their home cage and placed in a novel environment for a few minutes. This manipulation stimulates the release of the stress hormone cortisol (FIG. 13). During their absence from the home cage, sunflower seeds are hidden under the bedding in one of the corners. When returned to the home cage, hamsters routinely scramble along the walls for 1-2 min before settling down, locating and eating the seeds. However, animals treated with the benzodiazepine anxiolytic chlordiazepoxide find seeds in less than 10 sec.
Male, Syrian golden hamsters (Mesocricetus auratus) (120-130 g) obtained from Harlan Sprague-Dawley Laboratories (Indianapolis, Ind.) were housed individually in Plexiglas cages (24 cm×24 cm×20 cm), maintained on a reverse light:dark cycle (14L: 10D; lights on at 19:00 hr) and provided food and water ad libitum. A range of concentrations of CLAV (saline vehicle, 0.1, 1.0, 10, 100 1,000 ng/kg) were tested in six groups of hamsters (4-8/group)(FIG. 1). All tests were conducted during the dark phase of the circadian cycle under dim red illumination. Prior to testing all animals were fasted for 20-24 hrs. Ninety min after intraperitoneal (IP) injection of drug, animals were taken from their home cage and placed into a holding cage for 2 min. During their absence, six sunflower seeds were buried under the bedding in one corner of their home cage. Animals were placed back into their home cage randomly facing any one of the empty corners and timed for their latency to find the seeds in a five min observation period. Latency times were analyzed with a one-way ANOVA followed by Scheffe's post hoc tests. Assumption of equal variances was tested (Hartley's F-max=2.1 p>0.05)
It was hypothesized that CLAV functioned as an anxiolytic in the seed finding assay by blocking NAALADase activity in the brain. If this notion were true then it would be predicted that drugs known to block NAALADase should also enhance seed finding. To this end, animals were treated with N-acetyl-beta-aspartyl-glutamic acid (beta-NAAG), a competitive inhibitor of NAALADase (Serval et al., 1992) and tested in the seed finding model of anxiety. The study was similar to that outlined in Section I with one notable exception. […] Beta-NAAG (FW 304) was given in a dose of 3 ng in a volume of 1 μl saline ICV. The average adult hamster brain weights ca. 1.2 g of which 22% is extracellular fluid. The estimated beta-NAAG concentration was 11 ng/ml or 36 nM.
Two groups of six animals each were fasted overnight as previously described and tested the following day. One group was treated with beta-NAAG and the other saline vehicle and one hr later timed for latency to find the hidden sunflower seeds. A Student t-test for unpaired data was used for statistical comparisons.

| SMILES | dose effective to inhibit neurogenic NAALADase ([1]; i.p.) | dose showing activity similar to moxalactam (aggression, spatial learning, anxiolytic) ([1]; i.p.) | dose exhibiting dose responsive neuroactivity ([1]; levels as low as) | antiaggressive properties (summary) ([2]; 200 μg/kg) | contact time with the intruder ([2]; 200 μg/kg IP, 90 min) | flank marking behavior ([2]; 200 μg/kg IP, 90 min) | latency to bite the intruder ([2]; 200 μg/kg IP, 90 min, trend toward significance) | median number of bites ([2]; 200 μg/kg IP, 90 min, vehicle thirteen) | aggressive behavior, pilot studies ([2]; IP at 1.0 μg/kg) | latency to find the sunflower seeds vs vehicle ([3]; 1 ng/kg IP, 90 min) | estimated concentration in extracellular water at the 10 ng/kg dose ([3]; 1.25 ng in 27.5 ml) | effective dose (maximal efficacy) in the seed finding test ([3]; IP) | latency to find the sunflower seeds ([3]; doses of 10 ng and above, IP, 90 min, vehicle 104 sec) | estimated concentration in the brain at the 10 ng/kg dose ([3]; from CSF/plasma ratio 0.25) | dose exhibiting significant dose responsive neuroactivity ([1]; administered parenterally) | threshold effective dose ([1]; administered parenterally) | effective minimum neurogenic protease inhibiting concentration in the brain ([1]; based on animal test data and known brain distribution) | minimum effective dose ([1]; parenterally, hamsters and other test species) | aggression ([2]; i.p. at 50 micrograms/kg, hamster) | change of seed finding time ([3]; dose not given) |
| --- | --- | --- | --- | --- | --- | --- | --- | --- | --- | --- | --- | --- | --- | --- | --- | --- | --- | --- | --- | --- |
| O=C(O)[C@H]1/C(=C/CO)O[C@@H]2CC(=O)N21 [CLAV, clavulanic acid] | less than 1 microgram per kilogram of body weight | less than 1 microgram/kg | 0.01 µg/kg | modest antiaggressive or serenic-like properties | no significant main effect for drug treatment | unaffected; also recorded: no significant effect of drug treatment | no significant main effect for drug treatment | six | no effect on aggressive behavior | not significantly different from vehicle control | 0.045 ng/ml and about 200 pM | 0.01 µg/kg | less than 8.0 sec | around 50 pM | – | – | – | – | – | – |
| CO[C@@]1(NC(=O)C(C(=O)O)c2ccc(O)cc2)C(=O)N2C(C(=O)O)=C(CSc3nnnn3C)CO[C@@H]21 (stereo partly drawn) [Moxalactam, 7-β-[2-carboxy-2-(4-hydroxyphenyl)acetamido]-7α-methoxy-3-[[(1-methyl-1H-tetrazol-5-yl)thio]methyl]-1-oxa-1-dethia-3-cephem-4-carboxylic acid] | – | – | – | – | – | – | – | – | – | – | – | – | – | – | about 50 μg/kg of body weight | about 50 βg/kg of body weight | about 30 nM | about 50 micrograms per kg of body weight | inhibits aggression in hamster | reduction in seed finding time from minutes to seconds |
